# Data from patent US9315475B2 (MERCK SHARP & DOHME CORP., priority 2011, dated 2016).
# System: HIV-1 (H9IIIB strain)
# Test: Antiviral acute infection assay in cell culture (Spread)
# Type: cell-based
# Conditions: Human immunodeficiency virus 1, T-lymphoid, HIV-1 H9IIIB infection of MT-4 human T-lymphoid cells in 10% FBS; mean of at least two independent experiments
# Description: Antiviral Assays in Cell Culture (“Spread”)
# Acute Infection Assay (“Spread”) data were generated using HIV-1 (H9IIIB strain) infection of MT-4 human T-lymphoid cells in 10% FBS, and according to the methods disclosed by J. P. Vacca et al, “L-735,524: An orally bioavailable human immunodeficiency virus type 1 protease inhibitor,” Proc. Natl. Acad. Sci. USA, Vol. 91, pp. 4096-4100 (April 1994).
row,SMILES,EC50
1,"O=C(CC(c1ccc(F)cc1)c1ccc(F)cc1)Nc1cncc(F)c1CC[C@@H]1CN[C@H](COC(=O)NCCNc2ccccc2)CO1 [Example 168, {(3S,6R)-6-[2-(3-{[3,3-bis(4-fluorophenyl)propanoyl]amino}-5-fluoropyridin-4-yl)ethyl]morpholin-3-yl}methyl [2-(phenyl-amino)ethyl]carbamate]",13 nM
2,"N[C@H](C(=O)Nc1cccc(F)c1CC[C@@H]1CN[C@H](COC(=O)NCC(F)(F)F)CO1)[C@H](c1ccc(Cl)cc1)c1ccc2c(c1)OCO2 [Example 100, {(3S,6R)-6-[2-(2-{[(3R)-3-(1,3-Benzodioxol-5-yl)-3-(4-chlorophenyl)-L-alanyl]amino}-6-fluorophenyl)ethyl]morpholin-3-yl}methyl (2,2,2-trifluoroethyl)carbamate]",39 nM
3,"O=C(C[C@@H](c1ccc(F)cc1)c1cccc(F)c1F)Nc1cccc(F)c1CC[C@@H]1CN[C@H](COC(=O)NCC(F)(F)F)CO1 [Example 153, {(3S,6R)-6-[2-(2-{[(3S)-3-(2,3-difluorophenyl)-3-(4-fluorophenyl)propanoyl]amino}-6-fluoro-phenyl)ethyl]morpholin-3-yl}methyl (2,2,2-trifluoroethyl)carbamate]",130 nM
4,"COC(=O)N[C@H](C(=O)Nc1cccc(F)c1CC[C@@H]1CN[C@H](COC(=O)NCC(F)(F)F)CO1)[C@@H](c1ccc(F)cc1)c1ccc(OC(F)(F)F)cc1 [Example 304, (βR)-β-(4-fluorophenyl)-N-(3-fluoro-2-{2-[(2R,5S)-5-({[(2,2,2-trifluoroethyl)carbamoyl]oxy}methyl)morpholin-2-yl]ethyl}phenyl)-Nα-(methoxy-carbonyl)-O-(trifluoromethyl)-L-tyrosinamide]",33 nM
5,"N#Cc1ncccc1[C@@H](CC(=O)Nc1cccc(F)c1CC[C@@H]1CN[C@H](COC(=O)NCC(F)(F)F)CO1)c1ccc(F)cc1 [Example 178, {(3S,6R)-6-[2-(2-{[(3S)-3-(2-cyanopyridin-3-yl)-3-(4-fluorophenyl)propanoyl]amino}-6-fluoro-phenyl)ethyl]morpholin-3-yl}methyl (2,2,2-trifluoroethyl)carbamate]",85 nM
6,"CC(NC(=O)OC[C@@H]1CO[C@H](CCc2c(F)cncc2NC(=O)CC(c2ccc(F)cc2)c2ccc(F)cc2)CN1)C1CCCO1 (stereo partly drawn) [Example 171, {(3S,6R)-6-[2-(3-{[3,3-bis(4-fluoro-phenyl)propanoyl]amino}-5-fluoropyridin-4-yl)ethyl]morpholin-3-yl}methyl [1-(tetrahydrofuran-2-yl)ethyl]carbamate]",68 nM
7,"O=C(CC(F)(F)F)NC[C@@H]1CO[C@H](CCc2c(F)cncc2NC(=O)CC(c2ccc(F)cc2)c2ccc(F)cc2)CN1 [Example 143, N-({(3R,6R)-6-[2-(3-{[3,3-Bis(4-fluorophenyl)propanoyl]amino}-5-fluoropyridin-4-yl)ethyl]morpholin-3-yl}methyl)-3,3,3-trifluoropropanamide]",40 nM
8,"COC(=O)N[C@H](C(=O)Nc1cncc(F)c1CC[C@@H]1CN[C@H](COC(=O)NCC(F)(F)F)CO1)[C@@H](c1ccc(Cl)cc1)c1ccc2c(c1)OCO2 [Example 104, (βS)-β-1,3-Benzodioxol-5-yl-4-chloro-N-(5-fluoro-4-{2-[(2R,5S)-5-({[(2,2,2-trifluoroethyl)carbamoyl]oxy}methyl)morpholin-2-yl]ethyl}pyridin-3-yl)-Nα-(methoxycarbonyl)-L-phenylalaninamide]",26 nM
9,"COC(=O)N[C@H](C(=O)Nc1cccc(F)c1CC[C@@H]1CN[C@H](COC(=O)NCC(F)(F)F)CO1)C(c1ccc(Cl)cc1)c1ccc(Cl)cc1 [Example 108, 4-Chloro-β-(4-chlorophenyl)-N-(3-fluoro-2-{2-[(2R,5S)-5-({[(2,2,2-trifluoroethyl)carbamoyl]oxy}methyl)morpholin-2-yl]ethyl}phenyl)-Nα-(methoxycarbonyl)-L-phenylalaninamide]",860 nM
10,"O=C(C[C@@H](c1ccc(F)cc1)c1cncc(C(F)(F)F)c1)Nc1cccc(F)c1CC[C@@H]1CN[C@H](COC(=O)NCC(F)(F)F)CO1 [Example 139, [(3S,6R)-6-{2-[2-Fluoro-6-({(3S)-3-(4-fluorophenyl)-3-[5-(trifluoromethyl)pyridin-3-yl]propanoyl}amino)phenyl]ethyl}morpholin-3-yl]methyl (2,2,2-trifluoroethyl)carbamate]",108 nM
11,"COc1ccc([C@H](CC(=O)Nc2cncc(F)c2CC[C@@H]2CN[C@H](COC(=O)NCC(F)(F)F)CO2)c2ccccc2)cc1Cl [Example 179, {(3S,6R)-6-[2-(3-{[(3R)-3-(3-chloro-4-methoxyphenyl)-3-phenylpropanoyl]amino}-5-fluoropyridin-4-yl)ethyl]morpholin-3-yl}methyl (2,2,2-trifluoroethyl)carbamate]",240 nM
12,"O=C(CC(c1ccc(F)cc1)c1ccc(F)cc1)Nc1cncc(F)c1CC[C@@H]1CN[C@H](COC(=O)NC(CO)C2CC2)CO1 (stereo partly drawn) [Example 175, {(3S,6R)-6-[2-(3-{[3,3-bis(4-fluoro-phenyl)propanoyl]amino}-5-fluoropyridin-4-yl)ethyl]morpholin-3-yl}methyl (1-cyclopropyl-2-hydroxyethyl)carbamate]",39 nM
13,"N[C@H](C(=O)Nc1cccc(F)c1CC[C@@H]1CN[C@H](COC(=O)NCC(F)(F)F)CO1)[C@@H](c1ccc(Cl)cc1)c1ccncc1F [Example 136, (βS)-4-Chloro-β-(3-fluoropyridin-4-yl)-N-(3-fluoro-2-{2-[(2R,5S)-5-({[(2,2,2-trifluoroethyl)carbamoyl]oxy}methyl)morpholin-2-yl]ethyl}phenyl)-L-phenylalaninamide]",60 nM
14,"O=C(CC(c1ccc(F)cc1)c1ccc(F)cc1)Nc1cncc(F)c1CC[C@@H]1CN[C@H](COC(=O)NC2CCOC2)CO1 (stereo partly drawn) [Example 173, {(3S,6R)-6-[2-(3-{[3,3-bis(4-fluoro-phenyl)propanoyl]amino}-5-fluoropyridin-4-yl)ethyl]morpholin-3-yl}methyl tetrahydrofuran-3-ylcarbamate]",37 nM
15,"COC(=O)N[C@H](C(=O)Nc1cccc(F)c1CC[C@@H]1CN[C@H](COC(=O)NCC(F)(F)F)CO1)[C@@H](c1ccc(F)cc1)c1ccccc1OC(F)(F)F [Example 111, (βS)-4-Fluoro-N-(3-fluoro-2-{2-[(2R,5S)-5-({[(2,2,2-trifluoroethyl)carbamoyl]oxy}methyl)morpholin-2-yl]ethyl}phenyl)-Nα-(methoxycarbonyl)-β-[2-(trifluoromethoxy)phenyl]-L-phenylalaninamide]",25 nM
16,"CS(=O)(=O)c1ccc([C@@H](CC(=O)Nc2cccc(F)c2CC[C@@H]2CN[C@H](COC(=O)NCC(F)(F)F)CO2)c2cccc(F)c2)cc1 [Example 113, [(3S,6R)-6-{2-[2-Fluoro-6-({(3R)-3-(3-fluorophenyl)-3-[4-(methylsulfonyl)phenyl]propanoyl}amino)phenyl]ethyl}morpholin-3-yl]methyl (2,2,2-trifluoroethyl)carbamate]",320 nM
17,"N[C@H](C(=O)Nc1cncc(F)c1CC[C@@H]1CN[C@H](COC(=O)NCC(F)(F)F)CO1)[C@@H](c1ccc(F)cc1)C1CCOCC1 [Example 127, (βR)-4-Fluoro-N-(5-fluoro-4-{2-[(2R,5S)-5-({[(2,2,2-trifluoroethyl)carbamoyl]oxy}methyl)morpholin-2-yl]ethyl}pyridin-3-yl)-β-(tetrahydro-2H-pyran-4-yl)-L-phenylalaninamide]",71 nM
